Where two headings read alike, the source gives them in different places.
Assays:
[1] = biological target: recombinant SARS-CoV-2 Main protease (Mpro) (Severe acute respiratory syndrome coronavirus 2 (2019-nCoV) (SARS-CoV-2), UniProt P0DTD1); test: Cov Mpro Biochemical IC50 Assay; settings: read-out: MPro IC50
[2] = test system: SARS-CoV-2-NLuc; test: microbe, parasite or virus in culture; assay type: cell-based, SARS Coronavirus 2
[3] = recombinant SARS-CoV-2 Mpro, fluorogenic peptide substrate
[4] = Severe acute respiratory syndrome coronavirus, 48 h, read-out: MPro EC50
[5] = recombinant SARS-CoV-2 Mpro 7.5 nM, fluorogenic peptide substrate 40 μM
[6] = Severe acute respiratory syndrome coronavirus, 48 h; read-out: MPro EC50

| SMILES | IC50 [1, 3] | EC50 [2, 4] | IC50 [1, 5] | EC50 ([2]; read-out: MPro EC50) | EC50 [2, 6] |
| --- | --- | --- | --- | --- | --- |
| NC(=O)c1cccc(-c2cccc(Cl)c2-c2ccc3c(=O)n(-c4cncc5ccccc45)c(=O)[nH]c3c2)c1 [Example 242] | 10.4 nM | 40.1 nM |  |  |  |
| COc1cc(-c2cc3c(s2)c(=O)n(-c2cncc(F)c2C)c(=O)n3CCC#N)c(Cl)cc1F (single isomer, unassigned) [Example 1026, 3-[6-(2-chloro-4-fluoro-5-methoxy-phenyl)-3-(5-fluoro-4-methyl-3-pyridyl)-2,4-dioxo-thieno[3,2-d]pyrimidin-1-yl]propanenitrile] |  |  | 3.08 nM | 5.44 nM |  |
| N#CCCn1c(=O)n(-c2cncc3cccc(F)c23)c(=O)c2sc(-c3ccccc3C#N)cc21 [Example 1085] |  | 41.6 nM | 23.1 nM |  |  |
| Cc1ccc(Cl)c(-c2cc3[nH]c(=O)n(-c4cncc5ccccc45)c(=O)c3s2)c1 [Example 338] | 13.8 nM | 37.5 nM |  |  |  |
| COc1ccc2cncc(-n3c(=O)[nH]c4cc(-c5ccccc5Cl)sc4c3=O)c2c1 [Example 175, 6-(2-chlorophenyl)-3-(6-methoxyisoquinolin-4-yl)thieno[3,2-d]pyrimidine-2,4(1H,3H)-dione] | 4.68 nM | 26.6 nM |  |  |  |
| COc1cc(-c2cc3c(s2)c(=O)n(-c2cncc(C#CC(C)(C)O)c2)c(=O)n3CCC#N)c(Cl)cc1F [Example 1038, 3-(6-(2-chloro-4-fluoro-5-methoxyphenyl)-3-(5-(3-hydroxy-3-methylbut-1-yn-1-yl)pyridin-3-yl)-2,4-dioxo-3,4-dihydrothieno[3,2-d]pyrimidin-1(2H)-yl)propanenitrile] |  |  | 1.28 nM |  | 5.69 nM |
| O=c1[nH]c2cc(-c3ccccc3Cl)sc2c(=O)n1-c1cncc2c(Cl)cccc12 [Example 592] |  | 39500 nM | > 50000 nM |  |  |
| COc1ccc(Cl)c(-c2cc3[nH]c(=O)n(-c4cncc5cnccc45)c(=O)c3s2)c1 [Example 582] |  | 31.7 nM | 8.83 nM |  |  |
| COc1ccc(Cl)c(-c2cc3[nH]c(=O)n(-c4cncc5cc(C(C)(C)O)sc45)c(=O)c3s2)c1 [Example 512, 6-(2-chloro-5-methoxy-phenyl)-3-[2-(1-hydroxy-1-methyl-ethyl)thieno[3,2-c]pyridin-7-yl]-1H-thieno[3,2-d]pyrimidine-2,4-dione] |  | 26.9 nM | 5.71 nM |  |  |
| COc1cc(-c2cc3[nH]c(=O)n(-c4cncc5ccc(C(C)(C)O)cc45)c(=O)c3s2)c(Cl)cc1F [Example 551, 6-(2-chloro-4-fluoro-5-methoxyphenyl)-3-(6-(2-hydroxypropan-2-yl)isoquinolin-4-yl)thieno[3,2-d]pyrimidine-2,4(1H,3H)-dione] |  | 23.6 nM | 5.36 nM |  |  |
| Cc1cn(C)nc1-c1cccc(Cl)c1-c1ccc2c(=O)n(-c3cncc4ccccc34)c(=O)[nH]c2c1 [Example 258] | 61.3 nM | 75.9 nM |  |  |  |
| N#Cc1ccc(F)c(-c2cc3[nH]c(=O)n(-c4cncc5ccccc45)c(=O)c3s2)c1 [Example 547] |  | > 1000 nM | 170 nM |  |  |
| CCCOc1ccc(Cl)c(-c2ccc3c(=O)n(-c4cncc5ccccc45)c(=O)[nH]c3c2)c1 [Example 249] | 269 nM | 110 nM |  |  |  |
| O=c1[nH]c2cc(-c3c(Cl)cccc3Cl)sc2c(=O)n1-c1cncc(C2CC2)c1 [Example 370, 3-(5-cyclopropylpyridin-3-yl)-6-(2,6-dichlorophenyl)thieno[3,2-d]pyrimidine-2,4(1H,3H)-dione] | 273 nM |  |  |  | 388 nM |
| CC1(N2CCN(c3ccc4cncc(-n5c(=O)[nH]c6cc(-c7ccccc7Cl)sc6c5=O)c4c3)CC2)COC1 [Example 391] | 6.25 nM | 10.2 nM |  |  |  |
| N#CCCn1c(=O)n(-c2cncc3ccccc23)c(=O)c2sc(-c3cc(Cl)ccc3C#N)cc21 [Example 821] |  | 11.5 nM | 6.75 nM |  |  |
| COc1cc(-c2cc3c(s2)c(=O)n(-c2cncc4cnn(C5CC5)c24)c(=O)n3CC#N)c(Cl)cc1F [Example 691] |  | 2.91 nM | 3.07 nM |  |  |
| N#Cc1ncccc1-c1ccc2c(=O)n(-c3cncc4ccccc34)c(=O)[nH]c2c1 [Example 62] | 904 nM | 3150 nM |  |  |  |

| SMILES | IC50 [1, 3] | EC50 [2, 4] | IC50 [1, 5] | EC50 ([2]; read-out: MPro EC50) | EC50 [2, 6] |
| --- | --- | --- | --- | --- | --- |
| CN(CCO)c1ccc2cncc(-n3c(=O)[nH]c4cc(-c5ccccc5Cl)sc4c3=O)c2c1 [Example 404] |  | 37.4 nM | 6.49 nM |  |  |
| O=c1[nH]c2cc(-c3ccccc3)sc2c(=O)n1-c1cncc2ccccc12 [Example 2] | 267 nM | 2490 nM |  |  |  |
| COCCn1ncc2cncc(-n3c(=O)[nH]c4cc(-c5cc(OC)c(F)cc5Cl)sc4c3=O)c21 [Example 733] |  | 25.8 nM | 15.2 nM |  |  |
| COc1cc(-c2cc3[nH]c(=O)n(-c4cncc5ccccc45)c(=O)c3cc2OC)c(C#N)cc1F (single isomer, unassigned) [Example 571, 5-fluoro-2-[3-(4-isoquinolyl)-6-methoxy-2,4-dioxo-1H-quinazolin-7-yl]-4-methoxy-benzonitrile] |  |  | 77.1 nM | 171 nM |  |
| Cc1nn(C)cc1-c1cccc(Cl)c1-c1cc2[nH]c(=O)n(-c3cncc(C4CC4)c3)c(=O)c2s1 [Example 617] |  | 19.5 nM | 7.26 nM |  |  |
| COc1cc(-c2cc3c(s2)c(=O)n(-c2cncc4nc(C)sc24)c(=O)n3CCC#N)c(Cl)cc1F [Example 941] |  | 40.1 nM | 7.53 nM |  |  |
| O=c1[nH]c2cc(-c3ccccc3Cl)sc2c(=O)n1-c1cncc2ccc(N3CC4(C3)CC(F)(F)C4)cc12 [Example 419] |  | 74.9 nM | 21.1 nM |  |  |
| Cc1cc(-c2cccc(Cl)c2-c2cc3[nH]c(=O)n(-c4cncc5ccccc45)c(=O)c3s2)cnn1 [Example 111, 6-(2-chloro-6-(6-methylpyridazin-4-yl)phenyl)-3-(isoquinolin-4-yl)thieno[3,2-d]pyrimidine-2,4(1H,3H)-dione] | 6.88 nM |  |  |  | 78.9 nM |
| COc1ccc(Cl)c(-c2cc3[nH]c(=O)n(-c4cncc5ccc(N6CCOCC6)nc45)c(=O)c3s2)c1 [Example 457] |  | < 6.04 nM | < 2.54 nM |  |  |
| Cc1c(Cl)cncc1-n1c(=O)c2sc(-c3ccc(F)cc3Cl)cc2n(CCC#N)c1=O [Example 807] |  | 35 nM | 20.6 nM |  |  |
| Cc1ccc2cncc(-n3c(=O)c4sc(-c5ccccc5Cl)cc4n(CCC#N)c3=O)c2n1 [Example 907] |  | 6.97 nM | 5.81 nM |  |  |
| COc1cc(F)c(Cl)c(-c2ccc3c(=O)n(-c4cncc5ccccc45)c(=O)[nH]c3c2)c1 [Example 212] | 831 nM | 752 nM |  |  |  |
| O=c1[nH]c2cc(-c3cccc4c3CCC4)sc2c(=O)n1-c1cncc2ccccc12 [Example 168, 6-(2,3-dihydro-1H-inden-4-yl)-3-(isoquinolin-4-yl)thieno[3,2-d]pyrimidine-2,4(1H,3H)-dione] | 615 nM | 810 nM |  |  |  |
| COc1cnc(Cl)c(-c2cc3c(s2)c(=O)n(-c2cncc4ccccc24)c(=O)n3CCC#N)c1 [Example 942] |  | 13.2 nM | 12 nM |  |  |
| Cc1noc(C)c1-c1cc2[nH]c(=O)n(-c3cncc(C4CC4)c3)c(=O)c2s1 [Example 368] | 411 nM |  |  |  | 1920 nM |
| Cn1ncc2cncc(-n3c(=O)c4sc(-c5cc(F)ccc5Cl)cc4n(CCC#N)c3=O)c21 [Example 789] |  | 4.8 nM | 5.82 nM |  |  |
| COc1cc(-c2cc3[nH]c(=O)n(-c4cncc5ccccc45)c(=O)c3s2)ccc1F [Example 469, 6-(4-fluoro-3-methoxy-phenyl)-3-(4-isoquinolyl)-1H-thieno[3,2-d]pyrimidine-2,4-dione] |  | 334 nM | 276 nM |  |  |
